Read-outs that look alike come from different tables or passages of the source.
Key:
[1] = target: maltose-binding protein (MBP) (Escherichia coli, UniProt P0AEX9); set-up: species or system E. coli; details: for frequency of state 1 / frequency of state 2 / frequency of state 3: 1 μM maltose; for current signal of trapped MBP on addition of the sugar: added to the cis chamber
[2] = cited from earlier work
[3] = target: MBP (Escherichia coli, UniProt P0AEX9); details: read-out: Kd, previously determined value; cited from earlier work
[4] = 10 μM sodium phosphate, before depletion of α-maltose
[5] = after depletion of α-maltose by 0.25 unit maltose phosphorylase
[6] = in the presence of ligand, −80 mV
[7] = assumption that state 3 represents MBP bound to an aldehyde intermediate
[8] = state 1, β anomer, −80 mV, pH 7.5
[9] = state 2, α anomer, −80 mV, pH 7.5
[10] = state 3, β anomer (second binding mode), −80 mV, pH 7.5

## OC[C@H]1O[C@H](O[C@H]2[C@H](O)[C@@H](O)[C@H](O)O[C@@H]2CO)[C@H](O)[C@@H](O)[C@@H]1O [Maltose, maltose]
[1]; [4]
  frequency of state 1: 4.28 ± 0.57 s⁻¹
  frequency of state 2: 0.18 ± 0.17 s⁻¹
[1]; [5]
  frequency of state 1: 5.59 ± 0.89 s⁻¹
  frequency of state 2: 0 s⁻¹
[1]; after the depletion of α-maltose
  frequency of state 3: 0.01 ± 0.02 s⁻¹
[1]; before the depletion of α-maltose
  frequency of state 3: 0.05 ± 0.04 s⁻¹
[1]; [6]
  residual current, state 0: 56.5 ± 0.4%
  residual current, state 1: 54.0 ± 0.4%
  residual current, state 2: 52.0 ± 0.4%
  residual current, state 3: 51.1 ± 0.4%

## O=C[C@H](O)[C@@H](O)[C@H](O[C@H]1O[C@H](CO)[C@@H](O)[C@H](O)[C@H]1O)[C@H](O)CO [aldehyde intermediate]
[1]; [7]
  Kd: 0.019 nM
  koff: 1.3 ± 0.5 s⁻¹
  kon: 6.9 ± 2.8 × 10^10 M^−1s^−1

## OC[C@H]1O[C@H](O[C@H]2[C@H](O)[C@@H](O)[C@@H](O[C@H]3[C@H](O)[C@@H](O)[C@@H](O[C@H]4[C@H](O)[C@@H](O)C(O)O[C@@H]4CO)O[C@@H]3CO)O[C@@H]2CO)[C@H](O)[C@@H](O)[C@@H]1O (some centres unmarked) [maltotetraose]
[1]; −80 mV
  current signal of trapped MBP on addition of the sugar: three ligand-bound current levels similar to those of maltose and maltotriose

## OC[C@H]1O[C@@](CO)(O[C@H]2O[C@H](CO)[C@@H](O)[C@H](O)[C@H]2O)[C@@H](O)[C@@H]1O [sucrose]
[1]; −80 mV
  current signal of trapped MBP on addition of the sugar: no signal change

## OC[C@H]1O[C@H](O[C@H]2[C@H](O)[C@@H](O)[C@@H](O)O[C@@H]2CO)[C@H](O)[C@@H](O)[C@@H]1O [α-maltose]
[2]
  rate constant of spontaneous interconversion between α-maltose and β-maltose: ~ 0.009 min^−1

## OC[C@H]1O[C@@H]2O[C@H]3[C@H](O)[C@@H](O)[C@@H](O[C@H]4[C@H](O)[C@@H](O)[C@@H](O[C@H]5[C@H](O)[C@@H](O)[C@@H](O[C@H]6[C@H](O)[C@@H](O)[C@@H](O[C@H]7[C@H](O)[C@@H](O)[C@@H](O[C@H]8[C@H](O)[C@@H](O)[C@@H](O[C@H]1[C@H](O)[C@H]2O)O[C@@H]8CO)O[C@@H]7CO)O[C@@H]6CO)O[C@@H]5CO)O[C@@H]4CO)O[C@@H]3CO [β-cyclodextrin]
[1]; −80 mV
  current signal of trapped MBP on addition of the sugar: one major current level similar to state 1 of maltose

## maltotriose
[1]; −80 mV
  current signal of trapped MBP on addition of the sugar: four states that were almost identical to the states seen with maltose
[1]; state 1, β anomer, −80 mV, 150 mM NaCl, 15 mM Tris-HCl, pH 7.5
  Kd: 120 nM
[1]; [8]
  koff: 4.8 ± 0.3 s⁻¹
  kon: 40.8 ± 0.1 µM⁻¹ s⁻¹
[1]; state 1 versus state 2
  association rate of major β-anomer binding state relative to α-anomer: more than 3 times
[1]; [9]
  Kd: 240 ± 10 nM
  koff: 1.6 ± 0.1 s⁻¹
  kon: 6.6 ± 0.1 µM⁻¹ s⁻¹
[1]; [10]
  Kd: 380 ± 20 nM
  koff: 1.9 ± 0.4 s⁻¹
  kon: 5.0 ± 0.2 µM⁻¹ s⁻¹
[3]
  Kd: 160 to 700 nM

Reference: publication PMC7162534 (ACS nano, 2020)
